Patent US20170190671A1, “BIS(ARYL)CATECHOL DERIVATIVES AS HERBICIDES” (E I DU PONT DE NEMOURS AND COMPANY, priority 2014, published 2017)

Columns and labels:
Assay in all cases: Test E preemergence
Type in all cases: in vivo
Conditions in all cases: scale 0 to 100
[1] = tested on: morningglory (Ipomoea coccinea)
Excerpt: (§1) Seeds of plant species selected from corn (Zea mays), soybean (Glycine max), velvetleaf (Abutilon theophrasti), cocklebur (common cocklebur, Xanthium strumarium), lambsquarters (Chenopodium album), wild poinsettia (Euphorbia heterophylla), palmer pigweed (Amaranthus palmeri), waterhemp (common waterhemp, Amaranthus rudis), surinam grass (Brachiaria decumbens), large (Lg) crabgrass (Digitaria sanguinalis), Brazilian crabgrass (Digitaria horizontalis), fall panicum (Panicum dichotomiflorum), giant foxtail (Setaria faberii), green foxtail (Setaria viridis), goosegrass (Eleusine indica), johnsongrass (Sorghum halepense), ragweed (common ragweed, Ambrosia elatior), barnyardgrass (Echinochloa crus-galli), sandbur (southern sandbur, Cenchrus echinatus), arrowleaf sida (Sida rhombifolia), Italian ryegrass (Lolium multiflorum), dayflower (Virginia (VA) dayflower, Commelina virginica), field bindweed (Convolvulus arvensis), morningglory (Ipomoea coccinea), nightshade (eastern black nightshade, Solanum ptycanthum), kochia (Kochia scoparia), yellow nutsedge (Cyperus esculentus), horseweed (Conyza canadensis), and hairy beggarticks (Bidens pilosa), were planted into a silt loam soil and treated preemergence with test chemicals formulated in a non-phytotoxic solvent mixture which included a surfactant.
(§2) At the same time, plants from these crop and weed species and also waterhemp_RES1, (ALS & Triazine resistant common waterhemp, Amaranthus rudis), and waterhemp_RES2, (ALS & HPPD resistant common waterhemp, Amaranthus rudis) were planted in pots containing Redi-Earth® planting medium (Scotts Company, 14111 Scottslawn Road, Marysville, Ohio 43041) comprising spaghnum peat moss, vermiculite, wetting agent and starter nutrients were treated with postemergence applications of test chemicals formulated in the same manner. Plants ranged in height from 2 to 18 cm for postemergence treatments (1- to 4-leaf stage). Treated plants and controls were maintained in a greenhouse for 14 to 21 days, after which time all species were compared to controls and visually evaluated. Plant response ratings, summarized in Table E, are based on a scale of 0 to 100 where 0 is no effect and 100 is complete control. A dash (-) response means no test result.

[2] = tested on: lambsquarters (Chenopodium album)
Excerpt: as §1, §2

[3] = tested on: arrowleaf sida (Sida rhombifolia)
Excerpt: as §1, §2

[4] = tested on: Italian ryegrass (Lolium multiflorum)
Excerpt: as §1, §2

[5] = tested on: barnyardgrass (Echinochloa crus-galli)
Excerpt: as §1, §2

[6] = tested on: dayflower (Virginia (VA) dayflower, Commelina virginica)
Excerpt: as §1, §2

[7] = tested on: giant foxtail (Setaria faberii)
Excerpt: as §1, §2

[8] = tested on: sandbur (southern sandbur, Cenchrus echinatus)
Excerpt: as §1, §2

[9] = tested on: nightshade (eastern black nightshade, Solanum ptycanthum)
Excerpt: as §1, §2

[10] = tested on: goosegrass (Eleusine indica)
Excerpt: as §1, §2

[11] = tested on: soybean (Glycine max)
Excerpt: as §1, §2

[12] = tested on: corn (Zea mays)
Excerpt: as §1, §2

[13] = tested on: palmer pigweed (Amaranthus palmeri)
Excerpt: as §1, §2

[14] = tested on: hairy beggarticks (Bidens pilosa)
Excerpt: as §1, §2

[15] = tested on: fall panicum (Panicum dichotomiflorum)
Excerpt: as §1, §2

[16] = tested on: yellow nutsedge (Cyperus esculentus)
Excerpt: as §1, §2

[17] = tested on: kochia (Kochia scoparia)
Excerpt: as §1, §2

[18] = tested on: Brazilian crabgrass (Digitaria horizontalis)
Excerpt: as §1, §2

[19] = tested on: green foxtail (Setaria viridis)
Excerpt: as §1, §2

[20] = tested on: large (Lg) crabgrass (Digitaria sanguinalis)
Excerpt: as §1, §2

[21] = tested on: field bindweed (Convolvulus arvensis)
Excerpt: as §1, §2

Fc1cccc(Oc2ncc(C(F)(F)F)cn2)c1Oc1ncc(Cl)cn1 [Compound 42, 5-chloro-2-[2-fluoro-6-[[5-(trifluoromethyl)-2-pyrimidinyl]oxy]phenoxy]pyrimidine]
Plant response rating, Morningglory ([1]; 16 g ai/ha): 0 | Plant response rating, Morningglory ([1]; 31 g ai/ha): 35 | Plant response rating, Morningglory ([1]; 62 g ai/ha): 70 | Plant response rating, Morningglory ([1]; 125 g ai/ha): 95 | Plant response rating, Lambsquarters ([2]; 16 g ai/ha): 100 | Plant response rating, Lambsquarters ([2]; 31 g ai/ha): 100 | Plant response rating, Lambsquarters ([2]; 62 g ai/ha): 100 | Plant response rating, Lambsquarters ([2]; 125 g ai/ha): 100 | Plant response rating, Arrowleaf Sida ([3]; 16 g ai/ha): 100 | Plant response rating, Arrowleaf Sida ([3]; 31 g ai/ha): 98 | Plant response rating, Arrowleaf Sida ([3]; 62 g ai/ha): 100 | Plant response rating, Arrowleaf Sida ([3]; 125 g ai/ha): 100 | Plant response rating, Ryegrass, Italian ([4]; 16 g ai/ha): 20 | Plant response rating, Ryegrass, Italian ([4]; 31 g ai/ha): 40 | Plant response rating, Ryegrass, Italian ([4]; 62 g ai/ha): 80 | Plant response rating, Ryegrass, Italian ([4]; 125 g ai/ha): 98 | Plant response rating, Barnyardgrass ([5]; 16 g ai/ha): 5 | Plant response rating, Barnyardgrass ([5]; 31 g ai/ha): 50 | Plant response rating, Barnyardgrass ([5]; 62 g ai/ha): 70 | Plant response rating, Barnyardgrass ([5]; 125 g ai/ha): 100 | Plant response rating, Dayflower, VA ([6]; 16 g ai/ha): 0 | Plant response rating, Dayflower, VA ([6]; 31 g ai/ha): 20 | Plant response rating, Dayflower, VA ([6]; 62 g ai/ha): 90 | Plant response rating, Dayflower, VA ([6]; 125 g ai/ha): 95 | Plant response rating, Foxtail, Giant ([7]; 16 g ai/ha): 50 | Plant response rating, Foxtail, Giant ([7]; 31 g ai/ha): 80 | Plant response rating, Foxtail, Giant ([7]; 62 g ai/ha): 100 | Plant response rating, Foxtail, Giant ([7]; 125 g ai/ha): 100 | Plant response rating, Sandbur ([8]; 16 g ai/ha): 0 | Plant response rating, Sandbur ([8]; 31 g ai/ha): 5 | Plant response rating, Sandbur ([8]; 62 g ai/ha): 35 | Plant response rating, Sandbur ([8]; 125 g ai/ha): 65 | Plant response rating, Nightshade ([9]; 16 g ai/ha): 80 | Plant response rating, Nightshade ([9]; 31 g ai/ha): 70 | Plant response rating, Nightshade ([9]; 62 g ai/ha): 98 | Plant response rating, Nightshade ([9]; 125 g ai/ha): 98 | Plant response rating, Goosegrass ([10]; 16 g ai/ha): 0 | Plant response rating, Goosegrass ([10]; 31 g ai/ha): 50 | Plant response rating, Goosegrass ([10]; 62 g ai/ha): 90 | Plant response rating, Goosegrass ([10]; 125 g ai/ha): 98 | Plant response rating, Soybean ([11]; 16 g ai/ha): 0 | Plant response rating, Soybean ([11]; 31 g ai/ha): 35 | Plant response rating, Soybean ([11]; 62 g ai/ha): 35 | Plant response rating, Soybean ([11]; 125 g ai/ha): 100 | Plant response rating, Corn ([12]; 16 g ai/ha): 0 | Plant response rating, Corn ([12]; 31 g ai/ha): 0 | Plant response rating, Corn ([12]; 62 g ai/ha): 35 | Plant response rating, Corn ([12]; 125 g ai/ha): 65 | Plant response rating, Pigweed, Palmer ([13]; 16 g ai/ha): 60 | Plant response rating, Pigweed, Palmer ([13]; 31 g ai/ha): 70 | Plant response rating, Pigweed, Palmer ([13]; 62 g ai/ha): 80 | Plant response rating, Pigweed, Palmer ([13]; 125 g ai/ha): 100 | Plant response rating, Beggarticks ([14]; 16 g ai/ha): 0 | Plant response rating, Beggarticks ([14]; 31 g ai/ha): 0 | Plant response rating, Beggarticks ([14]; 62 g ai/ha): 0 | Plant response rating, Beggarticks ([14]; 125 g ai/ha): 0 | Plant response rating, Panicum, Fall ([15]; 16 g ai/ha): 0 | Plant response rating, Panicum, Fall ([15]; 31 g ai/ha): 98 | Plant response rating, Panicum, Fall ([15]; 62 g ai/ha): 100 | Plant response rating, Panicum, Fall ([15]; 125 g ai/ha): 100 | Plant response rating, Nutsedge, Yellow ([16]; 16 g ai/ha): 0 | Plant response rating, Nutsedge, Yellow ([16]; 31 g ai/ha): 0 | Plant response rating, Nutsedge, Yellow ([16]; 62 g ai/ha): 35 | Plant response rating, Nutsedge, Yellow ([16]; 125 g ai/ha): 40 | Plant response rating, Kochia ([17]; 16 g ai/ha): 80 | Plant response rating, Kochia ([17]; 31 g ai/ha): 90 | Plant response rating, Kochia ([17]; 62 g ai/ha): 100 | Plant response rating, Kochia ([17]; 125 g ai/ha): 100 | Plant response rating, Crabgrass, Brazil ([18]; 16 g ai/ha): 35 | Plant response rating, Crabgrass, Brazil ([18]; 31 g ai/ha): 95 | Plant response rating, Crabgrass, Brazil ([18]; 62 g ai/ha): 100 | Plant response rating, Crabgrass, Brazil ([18]; 125 g ai/ha): 100 | Plant response rating, Foxtail, Green ([19]; 16 g ai/ha): 35 | Plant response rating, Foxtail, Green ([19]; 31 g ai/ha): 80 | Plant response rating, Foxtail, Green ([19]; 62 g ai/ha): 95 | Plant response rating, Foxtail, Green ([19]; 125 g ai/ha): 100 | Plant response rating, Crabgrass, Large ([20]; 16 g ai/ha): 80 | Plant response rating, Crabgrass, Large ([20]; 31 g ai/ha): 98 | Plant response rating, Crabgrass, Large ([20]; 62 g ai/ha): 100 | Plant response rating, Crabgrass, Large ([20]; 125 g ai/ha): 100 | Plant response rating, Field Bindweed ([21]; 16 g ai/ha): 25 | Plant response rating, Field Bindweed ([21]; 31 g ai/ha): 20 | Plant response rating, Field Bindweed ([21]; 62 g ai/ha): 40 | Plant response rating, Field Bindweed ([21]; 125 g ai/ha): 85

Fc1cccc(Oc2ncc(Cl)cn2)c1Oc1ncc(C(F)(F)F)cn1 [Compound 43, 5-chloro-2-[5-fluoro-6-[[5-(trifluoromethyl)-2-pyrimidinyl]oxy]phenoxy]pyrimidine]
Plant response rating, Morningglory ([1]; 31 g ai/ha): 5 | Plant response rating, Morningglory ([1]; 125 g ai/ha): 95 | Plant response rating, Lambsquarters ([2]; 31 g ai/ha): 95 | Plant response rating, Lambsquarters ([2]; 125 g ai/ha): 100 | Plant response rating, Arrowleaf Sida ([3]; 31 g ai/ha): 100 | Plant response rating, Arrowleaf Sida ([3]; 125 g ai/ha): 100 | Plant response rating, Ryegrass, Italian ([4]; 31 g ai/ha): 40 | Plant response rating, Ryegrass, Italian ([4]; 125 g ai/ha): 98 | Plant response rating, Barnyardgrass ([5]; 31 g ai/ha): 20 | Plant response rating, Barnyardgrass ([5]; 125 g ai/ha): 100 | Plant response rating, Dayflower, VA ([6]; 31 g ai/ha): 25 | Plant response rating, Dayflower, VA ([6]; 125 g ai/ha): 95 | Plant response rating, Foxtail, Giant ([7]; 31 g ai/ha): 85 | Plant response rating, Foxtail, Giant ([7]; 125 g ai/ha): 100 | Plant response rating, Sandbur ([8]; 31 g ai/ha): 15 | Plant response rating, Sandbur ([8]; 125 g ai/ha): 100 | Plant response rating, Nightshade ([9]; 31 g ai/ha): 98 | Plant response rating, Nightshade ([9]; 125 g ai/ha): 100 | Plant response rating, Goosegrass ([10]; 31 g ai/ha): 50 | Plant response rating, Goosegrass ([10]; 125 g ai/ha): 100 | Plant response rating, Soybean ([11]; 31 g ai/ha): 30 | Plant response rating, Soybean ([11]; 125 g ai/ha): 65 | Plant response rating, Corn ([12]; 31 g ai/ha): 0 | Plant response rating, Corn ([12]; 125 g ai/ha): 50 | Plant response rating, Pigweed, Palmer ([13]; 31 g ai/ha): 75 | Plant response rating, Pigweed, Palmer ([13]; 125 g ai/ha): 90 | Plant response rating, Beggarticks ([14]; 31 g ai/ha): 0 | Plant response rating, Beggarticks ([14]; 125 g ai/ha): 0 | Plant response rating, Panicum, Fall ([15]; 31 g ai/ha): 95 | Plant response rating, Panicum, Fall ([15]; 125 g ai/ha): 100 | Plant response rating, Nutsedge, Yellow ([16]; 31 g ai/ha): 0 | Plant response rating, Nutsedge, Yellow ([16]; 125 g ai/ha): 25 | Plant response rating, Kochia ([17]; 31 g ai/ha): 98 | Plant response rating, Kochia ([17]; 125 g ai/ha): 100 | Plant response rating, Crabgrass, Brazil ([18]; 31 g ai/ha): 95 | Plant response rating, Crabgrass, Brazil ([18]; 125 g ai/ha): 100 | Plant response rating, Foxtail, Green ([19]; 31 g ai/ha): 70 | Plant response rating, Foxtail, Green ([19]; 125 g ai/ha): 100 | Plant response rating, Crabgrass, Large ([20]; 31 g ai/ha): 98 | Plant response rating, Crabgrass, Large ([20]; 125 g ai/ha): 100 | Plant response rating, Field Bindweed ([21]; 31 g ai/ha): 20 | Plant response rating, Field Bindweed ([21]; 125 g ai/ha): 50
